We go through 20 compounds from patent publication US6608086B2, “Dihydropyridines and new uses thereof” (Synaptic Pharmaceutical Corporation, priority 1993, dated 2003).

One assay concerns the target T1, L-type calcium channel (Rattus norvegicus, UniProt P22002).
T1 construct: membrane fragments of rat cardiac muscle; from tissue; host or cells: rat cardiac muscle membranes
As to the kind of experiment: Competition binding of [3H]nitrendipine to membrane fragments of rat cardiac muscle.

The target of a further assay is T2, α2A receptor (Homo sapiens, UniProt P08913).
T2 construct: host or cells: LM(tk-) cells, line L-α2A
T2 sequence (P08913 1-465): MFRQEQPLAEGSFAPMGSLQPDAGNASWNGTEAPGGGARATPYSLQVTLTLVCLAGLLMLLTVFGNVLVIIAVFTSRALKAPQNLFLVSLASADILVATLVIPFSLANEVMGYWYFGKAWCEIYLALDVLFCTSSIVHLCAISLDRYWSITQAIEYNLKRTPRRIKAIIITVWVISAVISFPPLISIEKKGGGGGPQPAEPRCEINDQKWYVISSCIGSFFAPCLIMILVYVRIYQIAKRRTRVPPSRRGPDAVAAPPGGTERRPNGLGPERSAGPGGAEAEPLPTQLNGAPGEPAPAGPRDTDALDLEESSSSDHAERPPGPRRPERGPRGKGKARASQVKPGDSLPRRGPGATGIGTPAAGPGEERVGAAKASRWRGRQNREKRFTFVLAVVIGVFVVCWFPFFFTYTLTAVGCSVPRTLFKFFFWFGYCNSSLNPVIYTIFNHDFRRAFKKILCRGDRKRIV
In words: Competition binding, [3H]rauwolscine, human α2A receptor. The essentials: (§1)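 Equilibrium displacement of [3H]rauwolscine (0.5 nM) measured on membranes from stably transfected LM(tk−) lines, one per α2 subtype, in glycylglycine buffer at pH 7.6. Nonspecific binding set by 10 μM phentolamine; separation by filtration.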

Another assay deals with T3, α2C receptor (Homo sapiens, UniProt P18825).
T3 construct: host or cells: LM(tk-) cells, line L-α2C
T3 sequence (P18825 1-462): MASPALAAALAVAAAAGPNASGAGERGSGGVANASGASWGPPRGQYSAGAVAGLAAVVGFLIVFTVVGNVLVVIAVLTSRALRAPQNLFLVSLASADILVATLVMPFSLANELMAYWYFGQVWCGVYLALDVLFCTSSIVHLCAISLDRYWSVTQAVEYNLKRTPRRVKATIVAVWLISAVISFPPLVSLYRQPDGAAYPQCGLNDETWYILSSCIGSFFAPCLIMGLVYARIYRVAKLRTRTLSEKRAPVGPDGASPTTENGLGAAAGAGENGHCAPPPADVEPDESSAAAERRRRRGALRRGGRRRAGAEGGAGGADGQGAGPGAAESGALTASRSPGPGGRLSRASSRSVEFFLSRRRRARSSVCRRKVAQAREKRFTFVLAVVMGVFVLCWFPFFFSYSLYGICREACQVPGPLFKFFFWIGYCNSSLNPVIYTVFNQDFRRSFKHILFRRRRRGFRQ
As to the kind of experiment: Competition binding, [3H]rauwolscine, human α2C receptor. In outline:
as §1

[1] abbreviates: [3H]nitrendipine, rat cardiac muscle membranes, SEM and n in lines below, read-out: pKi Ca (converted).
Setting [2] is: [3H]rauwolscine, LM(tk-) cell line L-α2A, SEM and n in lines below, read-out: pKi alpha-2 2a (converted).
[3] abbreviates: [3H]rauwolscine, LM(tk-) cell line L-α2C, SEM and n in lines below, read-out: pKi alpha-2 2c (converted).

Like-named read-outs stand apart in the source and are kept apart here.

T1 sequence (P22002 whole entry, other chains not shown, the tested form may be a part): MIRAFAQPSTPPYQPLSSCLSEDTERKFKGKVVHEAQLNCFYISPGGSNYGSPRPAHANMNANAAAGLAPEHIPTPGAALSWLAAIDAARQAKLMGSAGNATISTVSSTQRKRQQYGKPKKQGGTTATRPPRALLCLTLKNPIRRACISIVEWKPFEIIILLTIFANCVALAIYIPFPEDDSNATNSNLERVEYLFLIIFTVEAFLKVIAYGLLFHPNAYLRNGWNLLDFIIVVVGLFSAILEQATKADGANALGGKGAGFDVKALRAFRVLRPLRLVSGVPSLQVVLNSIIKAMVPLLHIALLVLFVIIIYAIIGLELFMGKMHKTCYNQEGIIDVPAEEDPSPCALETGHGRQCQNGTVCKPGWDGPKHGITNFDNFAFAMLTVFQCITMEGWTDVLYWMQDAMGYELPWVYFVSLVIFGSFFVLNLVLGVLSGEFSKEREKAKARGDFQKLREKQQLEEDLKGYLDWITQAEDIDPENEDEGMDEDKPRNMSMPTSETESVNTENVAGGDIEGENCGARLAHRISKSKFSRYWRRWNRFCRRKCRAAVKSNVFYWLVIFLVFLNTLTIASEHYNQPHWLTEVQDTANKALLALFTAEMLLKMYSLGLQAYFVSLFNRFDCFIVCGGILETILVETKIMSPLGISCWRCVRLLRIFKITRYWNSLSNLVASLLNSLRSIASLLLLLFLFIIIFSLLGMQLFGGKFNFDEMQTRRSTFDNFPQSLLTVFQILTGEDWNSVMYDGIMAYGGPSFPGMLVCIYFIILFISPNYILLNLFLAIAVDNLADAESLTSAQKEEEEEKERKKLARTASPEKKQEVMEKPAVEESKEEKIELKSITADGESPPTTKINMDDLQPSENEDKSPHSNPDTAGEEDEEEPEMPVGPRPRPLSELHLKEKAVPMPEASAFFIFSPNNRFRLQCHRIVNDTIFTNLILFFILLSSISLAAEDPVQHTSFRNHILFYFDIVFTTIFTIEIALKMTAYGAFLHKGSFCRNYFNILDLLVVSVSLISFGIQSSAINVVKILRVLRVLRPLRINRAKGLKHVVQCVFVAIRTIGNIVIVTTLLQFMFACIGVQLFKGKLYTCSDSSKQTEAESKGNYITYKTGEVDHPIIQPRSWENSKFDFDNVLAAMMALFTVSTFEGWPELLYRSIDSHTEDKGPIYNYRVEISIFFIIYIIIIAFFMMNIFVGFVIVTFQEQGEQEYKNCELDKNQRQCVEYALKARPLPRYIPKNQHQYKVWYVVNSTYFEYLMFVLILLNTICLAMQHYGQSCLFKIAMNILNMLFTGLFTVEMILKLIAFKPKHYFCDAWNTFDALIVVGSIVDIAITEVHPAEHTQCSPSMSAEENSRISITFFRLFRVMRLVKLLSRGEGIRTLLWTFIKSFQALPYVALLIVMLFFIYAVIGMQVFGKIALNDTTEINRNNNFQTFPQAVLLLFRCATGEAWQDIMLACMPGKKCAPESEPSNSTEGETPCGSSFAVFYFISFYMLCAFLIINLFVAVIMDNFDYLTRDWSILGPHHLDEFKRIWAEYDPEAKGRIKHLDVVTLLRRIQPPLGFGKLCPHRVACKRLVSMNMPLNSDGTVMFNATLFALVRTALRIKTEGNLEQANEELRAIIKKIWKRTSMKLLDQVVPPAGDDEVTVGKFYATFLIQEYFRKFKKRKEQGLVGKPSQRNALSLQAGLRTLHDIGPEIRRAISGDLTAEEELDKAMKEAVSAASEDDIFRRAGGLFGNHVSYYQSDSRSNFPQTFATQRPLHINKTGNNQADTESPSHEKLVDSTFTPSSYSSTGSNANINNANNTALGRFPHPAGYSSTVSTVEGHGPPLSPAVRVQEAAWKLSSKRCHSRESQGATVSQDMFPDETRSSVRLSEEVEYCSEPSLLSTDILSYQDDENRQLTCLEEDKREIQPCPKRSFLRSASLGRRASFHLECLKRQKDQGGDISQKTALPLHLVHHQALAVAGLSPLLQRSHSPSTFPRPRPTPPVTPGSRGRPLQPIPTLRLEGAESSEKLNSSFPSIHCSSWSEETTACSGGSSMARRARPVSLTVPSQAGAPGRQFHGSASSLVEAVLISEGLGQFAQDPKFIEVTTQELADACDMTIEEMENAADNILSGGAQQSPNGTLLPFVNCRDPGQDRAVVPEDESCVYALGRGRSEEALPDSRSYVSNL
T1 sequence (P54290 25-944 partner limits assumed, other chains not shown): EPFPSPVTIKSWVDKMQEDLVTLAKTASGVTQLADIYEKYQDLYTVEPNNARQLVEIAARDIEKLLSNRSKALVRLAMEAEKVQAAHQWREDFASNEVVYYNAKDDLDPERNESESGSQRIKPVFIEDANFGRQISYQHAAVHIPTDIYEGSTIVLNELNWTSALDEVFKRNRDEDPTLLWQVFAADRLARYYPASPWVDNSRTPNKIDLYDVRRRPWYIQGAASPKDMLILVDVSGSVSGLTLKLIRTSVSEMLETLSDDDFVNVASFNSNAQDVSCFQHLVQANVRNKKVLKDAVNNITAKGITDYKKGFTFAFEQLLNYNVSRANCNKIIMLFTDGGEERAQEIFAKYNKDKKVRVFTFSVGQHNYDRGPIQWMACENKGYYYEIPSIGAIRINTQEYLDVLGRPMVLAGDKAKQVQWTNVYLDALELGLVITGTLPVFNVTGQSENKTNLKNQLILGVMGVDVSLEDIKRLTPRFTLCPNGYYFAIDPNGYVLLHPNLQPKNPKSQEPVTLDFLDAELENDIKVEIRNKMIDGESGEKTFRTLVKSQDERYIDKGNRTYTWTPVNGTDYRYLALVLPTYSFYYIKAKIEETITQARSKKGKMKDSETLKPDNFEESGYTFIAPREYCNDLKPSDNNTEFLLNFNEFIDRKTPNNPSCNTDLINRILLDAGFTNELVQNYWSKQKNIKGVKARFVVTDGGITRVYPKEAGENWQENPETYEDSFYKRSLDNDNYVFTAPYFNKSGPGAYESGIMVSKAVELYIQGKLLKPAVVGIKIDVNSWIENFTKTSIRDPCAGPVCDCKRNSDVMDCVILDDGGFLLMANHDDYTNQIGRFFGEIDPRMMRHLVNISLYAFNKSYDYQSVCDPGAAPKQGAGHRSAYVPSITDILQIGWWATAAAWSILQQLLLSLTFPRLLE
T1 sequence (P54290 945-1091 partner limits assumed, other chains not shown): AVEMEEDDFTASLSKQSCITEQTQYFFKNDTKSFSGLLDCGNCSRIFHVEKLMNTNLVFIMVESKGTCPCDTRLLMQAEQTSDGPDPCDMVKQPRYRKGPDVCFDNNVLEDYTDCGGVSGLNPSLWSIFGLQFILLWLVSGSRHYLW

On to `COC(=O)C1=C(C)NC(C)=C(C(=O)NCCCN2CCC(c3ccccc3)(c3ccccc3)CC2)C1c1ccc(Cl)cc1` (stereo not drawn) [Example 10, 4-(4-Chlorophenyl)-1,4-dihydro-5-methoxycarbonyl-2,6-Dimethyl-5-(N-(3-(4,4-diphenylpiperidin-1-yl)propyl)carboxamido)pyridine], for which the Ki on L-type calcium channel (pKi Ca) was 7590 nM; on α2A receptor, 2340 nM; on α2C receptor (pKi alpha-2 2c), 1230 nM.
With `COC(=O)C1=C(C)NC(C)=C(C(=O)NCCCN2CCC(c3ccccc3)(c3ccccc3)CC2)C1c1ccc2c(c1)OCO2` (stereo not drawn) [Example 11, 1,4-Dihydro-3-methoxycarbonyl-2,6-dimethyl-4-(3,4-methylenedioxyphenyl)-5-(N-(3-(4,4-diphenylpiperidin-1-yl)propyl)carboxamido)pyridine], the Ki was 2290 nM on L-type calcium channel (pKi Ca), 1120 nM at α2A receptor and 575 nM at α2C receptor (pKi alpha-2 2c).
For `COC(=O)C1=C(C)NC(C)=C(C(=O)NCCCN2CCC(c3ccccc3)(c3ccccc3)CC2)C1c1ccc(C#N)cc1` (stereo not drawn) [Example 12, 4-(4-Cyanophenyl)-1,4-dihydro-3-methoxycarbonyl-2,6-dimethyl-5-(N-(3-(4,4-diphenylpiperidin-1-yl)propyl)carboxamido)pyridine], in that order: 3800 nM, 776 nM and 871 nM.
With `COC(=O)C1=C(C)NC(C)=C(C(=O)NCCCN2CCC(c3ccccc3)(c3ccccc3)CC2)C1c1ccc(I)cc1` (stereo not drawn) [Example 13, 1,4-Dihydro-4-(4-iodophenyl)-3-methoxycarbonyl-2,6-dimethyl-5-(N-(3-(4,4-diphenylpiperidin-1-yl)propyl)carboxamido)pyridine], the Ki is 8910 nM on L-type calcium channel (pKi Ca), 1260 nM at α2A receptor and 646 nM at α2C receptor (pKi alpha-2 2c).
As for `COC(=O)C1=C(C)NC(C)=C(C(=O)NCCCN2CCC(c3ccccc3)(c3ccccc3)CC2)C1c1ccc(Br)cc1` (stereo not drawn) [Example 15, 4-(4-Bromophenyl)-1,4-dihydro-3-methoxycarbonyl-2,6-dimethyl-5-(N-(3-(4,4-diphenylpiperidin-1-yl)propyl)carboxamido)pyridine], the Ki at L-type calcium channel (pKi Ca) was 7240 nM; at α2A receptor, 2450 nM; on α2C receptor (pKi alpha-2 2c) it was 1120 nM.
Consider `COC(=O)C1=C(C)NC(C)=C(C(=O)NCCCN2CCC(c3ccccc3)(c3ccccc3)CC2)C1c1ccc(Cl)c([N+](=O)[O-])c1` (stereo not drawn) [Example 16, 4-(4-Chloro-3-nitrophenyl)-1,4-dihydro-3-methoxycarbonyl-2,6-dimethyl-5-(N-(3-(4,4-diphenylpiperidin-1-yl)propyl)carboxamido)pyridine], for which the results for the Ki on L-type calcium channel (pKi Ca), at α2A receptor and on α2C receptor (pKi alpha-2 2c) were 813 nM, 1120 nM and 380 nM, respectively.
Turning to `COC(=O)C1=C(C)NC(C)=C(C(=O)NCCCN2CCC(c3ccccc3)(c3ccccc3)CC2)C1c1ccc(C(C)C)cc1` (stereo not drawn) [Example 18, 1,4-Dihydro-4-(4-isopropylphenyl)-3-methoxycarbonyl-2,6-dimethyl-5-(N-(3-(4,4-diphenylpiperidin-1-yl)propyl)carboxamido)pyridine], the Ki at L-type calcium channel (pKi Ca) was 162 nM; on α2A receptor, 2140 nM; on α2C receptor (pKi alpha-2 2c) it was 933 nM.
As to `COC(=O)C1=C(C)NC(C)=C(C(=O)NCCCN2CCC(c3ccccc3)(c3ccccc3)CC2)C1c1ccc(C)cc1` (stereo not drawn) [Example 19, 1,4-Dihydro-3-methoxycarbonyl-1,6-dimethyl-4-(4-methylphenyl)-5-(N-(3-(4,4-diphenylpiperidin-1-yl)propyl)carboxamido)pyridine], the Ki on L-type calcium channel (pKi Ca) was 7410 nM; on α2A receptor it was 1290 nM; at α2C receptor (pKi alpha-2 2c), 417 nM.
For `COC(=O)C1=C(C)NC(C)=C(C(=O)NCCCN2CCC(c3ccccc3)(c3ccccc3)CC2)C1c1ccc(F)cc1` (stereo not drawn) [Example 20, 4-(4-Fluorophenyl)-1,4-dihydro-3-methoxycarbonyl-2,6-dimethyl-5-(N-(3-(4,4-diphenylpiperidin-1-yl)propyl)carboxamido)pyridine], in that order: 1150 nM, 1780 nM and 813 nM.
On to `COC(=O)C1=C(C)NC(C)=C(C(=O)NCCCN2CCC(c3ccccc3)(c3ccccc3)CC2)C1c1ccc(OC)cc1` (stereo not drawn) [Example 21, 1,4-Dihydro-3-methoxycarbonyl-4-(4-Methoxyphenyl)-2,6-dimethyl-5-(N-(3-(4,4-diphenylpiperidin-1-yl)propyl)carboxamido)pyridine], for which the Ki was 1000 nM on L-type calcium channel (pKi Ca), 2090 nM at α2A receptor and 776 nM at α2C receptor (pKi alpha-2 2c).
For `COC(=O)C1=C(C)NC(C)=C(C(=O)NCCCN2CCC(c3ccccc3)(c3ccccc3)CC2)C1c1ccc2ccccc2c1` (stereo not drawn) [Example 22], in that order: 372 nM, 1580 nM and 631 nM.
Take `COC(=O)C1=C(C)NC(C)=C(C(=O)NCCCN2CCC(c3ccccc3)(c3ccccc3)CC2)C1c1ccoc1` (stereo not drawn) [Example 23, 4-(3-Furyl)-1,4-dihydro-3-methoxycarbonyl-2,6-dimethyl-5-(N-(3-(4,4-diphenylpiperidin-1-yl)propyl)carboxamide)pyridine]: the Ki was 288 nM at L-type calcium channel (setting [1]), 955 nM at α2A receptor (setting [2]) and 468 nM on α2C receptor (setting [3]).
On to `COC(=O)C1=C(C)NC(C)=C(C(=O)NCCCN2CCC(c3ccccc3)(c3ccccc3)CC2)C1c1ccc(Cl)c(Cl)c1` (stereo not drawn) [Example 24, 4-(3,4-Dichlorophenyl)-1,4-dihydro-3-methoxycarbonyl-2,6-dimethyl-5-(3-(D 44-diphenylpiperidin-1-yl)propylcarboxamido)pyridine], for which the Ki at L-type calcium channel (pKi Ca) is 1950 nM; at α2A receptor it was 912 nM; at α2C receptor (pKi alpha-2 2c), 158 nM.
For `COC(=O)C1=C(C)NC(C)=C(C(=O)NCCCN2CCC(c3ccccc3)(c3ccccc3)CC2)C1c1ccc(C(=O)OC)cc1` (stereo not drawn) [Example 25, 1,4-Dihydro-3-methoxycarbonyl-4-(4-methoxycarbonylphenyl)-2,6-dimethyl-5-(N-(3-(4,4-diphenylpiperidin-1-yl)propyl)carboxamide)pyridine], the Ki on L-type calcium channel (pKi Ca) was 1150 nM; at α2A receptor, 1510 nM; on α2C receptor (pKi alpha-2 2c) it was 1020 nM.
For `COC(=O)C1=C(C)NC(C)=C(C(=O)NCCCN2CCC(c3ccccc3)(c3ccccc3)CC2)C1c1ccc(OC)c(OC)c1` (stereo not drawn) [Example 26], in that order: 87.1 nM, 2140 nM and 1480 nM.
`COC(=O)C1=C(C)NC(C)=C(C(=O)NCCCN2CCC(c3ccccc3)(c3ccccc3)CC2)C1c1cc(OC)c(OC)c(OC)c1` (stereo not drawn) [Example 27]: the Ki on L-type calcium channel (pKi Ca) is 589 nM; at α2A receptor it was 1950 nM; on α2C receptor (pKi alpha-2 2c) it was 1200 nM.
As for `COC(=O)C1=C(C)NC(C)=C(C(=O)NCCCN2CCC(c3ccccc3)(c3ccccc3)CC2)C1c1ccc([N+](=O)[O-])c(C)c1` (stereo not drawn) [Example 28], the Ki is 17400 nM on L-type calcium channel (setting [1]), 2290 nM at α2A receptor (setting [2]) and 631 nM on α2C receptor (setting [3]).
For `COC(=O)C1=C(C)NC(C)=C(C(=O)NCCCN2CCC(c3ccccc3)(c3ccccc3)CC2)C1c1ccc([N+](=O)[O-])c(OC)c1` (stereo not drawn) [Example 29, 1,4-Dihydro-3-methoxycarbonyl-4-(3-methoxy-4-nitrophenyl)-2,6-dimethyl-5-(N-(3-(4,4-diphenylpiperidin-1-yl)propyl)carboxamido)pyridine], in that order: 13800 nM, 692 nM and 398 nM.
Regarding `CC1=C(C#N)C(c2ccc([N+](=O)[O-])cc2)C(C(=O)NCCCN2CCC(c3ccccc3)(c3ccccc3)CC2)=C(C)N1` (stereo not drawn) [Example 37], the Ki at L-type calcium channel (pKi Ca) was 1350 nM; at α2A receptor, 708 nM; at α2C receptor (pKi alpha-2 2c), 575 nM.
As to `CC1=C(C(=O)NCCCN2CCC(c3ccccc3)(c3ccccc3)CC2)C(c2ccc([N+](=O)[O-])cc2)C2=C(CCCC2=O)N1` (stereo not drawn) [Example 40, 1,4,5,6,7,8-Hexahydro-2-methyl-4-(4-nitrophenyl)-5-oxo-3-{N-[3-(4,4-diphenylpiperidin-1-yl)propyl]}carboxamidoquinoline], the Ki is 15800 nM on L-type calcium channel (setting [1]), 1860 nM at α2A receptor (setting [2]) and 977 nM on α2C receptor (setting [3]).
